In patent US8410309B2, “Phenoxy carboxylic acid compounds and compositions for delivering active agents” (Emisphere Technologies, Inc., priority 1999, dated 2013):
“And” between values parts separate entries of the source, which are not always exact repeats. Identical values can stand only once. One block for each molecule: values may come before it.

Legend:
[1] = Low molecular weight heparin (LMWH) oral/intracolonic delivery, plasma LMWH by anti-Factor Xa assay; assay type: in vivo, Sprague-Dawley rats; conditions: IC, rats, LMWH 750 IU/kg, 1 ml/kg
Procedure: Oral dosing (PO) and/or intracolonic (IC) compositions containing a delivery agent compound and low molecular weight heparin (LMWH) were prepared in 25% aqueous propylene glycol. […] Typically, the delivery agent compound and LMWH (Parnaparin, 91 IU/mg average molecular weight about 5,000, available from Opocrin, Modena, Italy) (typically 90-105 IU/mg, average molecular weight about 5,000) were mixed by vortex as dry powders. This dry mixture was dissolved in 25% v/v aqueous propylene glycol, vortexed, and placed in a sonicator (37° C.) to produce a clear solution. The pH was adjusted to about 7 (6.5-8.5) with 2N aqueous NaOH. The dosing solution was sonicated to produce a clear solution. The final volume was adjusted to 3.0 ml.
(§1) The typical dosing and sampling protocols were as follows. […] The dosing solution was expressed slowly into the colon by pressing the syringe plunger.
Citrated blood samples were collected by cardiac puncture following the administration of ketamine (88 mg/kg), typically at 0.5, 1.0, 2.0, 3.0 and 4.0 hours after dosing. LMWH absorption was verified by an increase in plasma LMWH measured by the anti-Factor Xa assay CHROMOSTRATE™ Heparin anti-Xa assay (available from Organon Teknika Corporation, Durham, N.C.). […] The peak of these mean plasma LMWH concentrations is reported below in Table 5.

[2] = Heparin oral/intracolonic delivery, clotting time by activated partial thromboplastin time (APTT); assay type: in vivo, Sprague-Dawley rats; conditions: rats, baseline about 20 seconds
Procedure: Oral gavage (PO) and/or intracolonic (IC) dosing solutions containing a delivery agent compound and heparin sodium USP were prepared in 25% aqueous propylene glycol. […] This dry mixture was dissolved in 25% v/v aqueous propylene glycol, vortexed, and placed in a sonicator (about 37° C.). The pH was adjusted to about 7 (6.5 to 8.5) with aqueous NaOH (2N). The dosing solution was sonicated to produce a clear solution. The final volume was adjusted to about 3.0 ml.
as §1
Citrated blood samples were collected by cardiac puncture following the administration of ketamine (88 mg/kg), typically at 0.25, 0.5, 1.0 and 1.5 hours after dosing. Heparin absorption was verified by an increase in clotting time measured by the activated partial thromboplastin time (APTT) according to the method of Henry, J. B., Clinical Diagnosis and Management by Laboratory Methods, Philadelphia, Pa., W.B. Saunders (1979). Previous studies indicated baseline values of about 20 seconds.

[3] = Interferon oral delivery, serum IFN by immunoassay; assay type: in vivo, Sprague-Dawley rats; conditions: rats, delivery agent compound 200 mg/kg, IFN 1 mg/kg, 1 ml/kg
Procedure: Dosing solutions of delivery agent compound and human interferon (IFN) were prepared in deionized water. […] This mixture was vortexed and placed in a sonicator (about 37° C.). The pH was adjusted to about 7.0 to 8.5 with aqueous NaOH. The mixture was vortexed to produce a uniform suspension or solution, also using sonication and heat if necessary.
(§2) The typical dosing and sampling protocols were as follows.
Serum IFN concentrations were quantified using Cytoscreen Immunoassay Kit for human IFN-alpha (catalog # KHC4012 from Biosource International, Camarillo, Calif.). Previous studies indicated baseline values of about zero.

[4] = Insulin oral delivery, serum human insulin by ELISA; conditions: rats
Procedure: Oral dosing (PO) compositions of delivery agent compound and human zinc insulin (minimum 26 IU/mg available from Calbiochem—Novabiochem Corp, La Jolla, Calif.) were prepared in deionized water. […] The pH was adjusted to about 7 to 8.5 with NaOH or HCl. […] The final delivery agent compound dose, insulin dose and dose volume amounts are listed below in Table 8.
as §2
Serum insulin levels were determined with an Insulin ELISA Test Kit (Kit # DSL-10-1600 from Diagnostic Systems Laboratories, Inc., Webster, Tex.), modifying the standard protocol in order to optimize the sensitivity and linear range of the standard curve for the volumes and concentrations of the samples used in the present protocol. […] The five values for each time point were averaged and the results plotted as serum insulin concentration versus time.

[5] = Insulin pulmonary delivery, serum insulin by ELISA, ratio to insulin-alone control; assay type: in vivo, Sprague-Dawley rats; conditions: pulmonary, rats; volume 0.4 ml/kg, delivery agent compound 0.03 mg/kg, insulin 0.3 mg/kg (so in the source)
Procedure: Dosing compositions of delivery agent compound and human insulin in water were prepared. Typically, to 1.5 mg of delivery agent compound was added deionized water to bring the volume to 1.0 ml, and the solution was vortexed. […] The pH was adjusted to between about 7.0 to 8.5 with NaOH or HCl. […] The final delivery agent compound dose, insulin dose and volume dose amounts are listed below in Table 9.
The typical dosing and sampling protocols were as follows. […] A control group of five animals was dosed insulin alone. A tracheal instillator for rodents, equipped with light (available from Penn Century, Inc., Pittsburgh, Pa.) was filled with dosing solution and inserted down the throat until the needle went into the trachea (confirmed visually). The dosing solution was administered by pressing the plunger.
Blood samples from each animal were collected serially from the tail artery, typically at 5, 15, 30, 60 and 120 minutes after dosing. […] The ratio of the area under the curve (AUC) for the test group versus that of the control group is reported below. The ratio of the maximum serum insulin concentration (Cmax) for the test group versus that of the control group is also reported below.

[6] = Salmon calcitonin (sCT) oral delivery, serum sCT by EIA; conditions: rats, delivery agent compound dose 150 mg/kg, sCT dose 30 μg/kg
Procedure: Oral dosing (PO) compositions of a delivery agent compound and salmon calcitonin (sCT) in deionized water were prepared as described in Table 2 below. […] Either the sodium salt of the compound was used or the free acid was converted to the sodium salt by stirring the resultant solution and adding one equivalent of sodium hydroxide (1.0 N) and diluting with water. The solution was vortexed, then heated (about 37° C.) and sonicated. The pH was adjusted to about 7 (about 6.5 to 8.5) with NaOH or HCl. 90 μg sCT from a sCT stock solution (2 mg/ml made by adding 10001 pH 4 phosphate buffer to sCT and allowing it to go into solution by sitting for about 10-20 minutes and periodically gently inverting) was added to the solution.
The typical dosing and sampling protocols were as follows. Male Sprague-Dawley rats weighing between 200-250 g were fasted for 24 hours and administered ketamine (44 mg/kg) and chlorpromazine (1.5 mg/kg) 15 minutes prior to dosing and again as needed to maintain anesthesia. A dosing group of five animals was administered one of the dosing solutions. For oral dosing, an 11 cm Rusch 8 French catheter was adapted to a 1 ml syringe with a pipette tip. The syringe was filled with dosing solution by drawing the solution through the catheter, which was then wiped dry. The catheter was placed down the esophagus leaving 1 cm of tubing past the incisors. Solution was administered by pressing the syringe plunger.
Blood samples were collected serially from the tail artery, typically at time=0, 10, 20, 30, 60 and 90 minutes. […] Numbers were adjusted according to baseline values obtained at time=0. The results from the animals in each dosing group were averaged for each time point.

[7] = Recombinant human growth hormone (rhGH) oral delivery, serum rhGH by immunoassay; conditions: oral gavage, rats, delivery agent compound 200 mg/kg, rhGH 3 mg/kg
Procedure: Oral gavage (PO) dosing solutions of delivery agent compound and rhGH in phosphate buffer were prepared by mixing. A solution of the delivery agent compound was made either with the sodium salt of the delivery agent compound or by converting the free acid to its sodium salt.
The typical dosing and sampling protocols were as follows. Male Sprague-Dawley rats weighing 200-250 g were fasted for 24 hours and administered ketamine (44 mg/kg) and chlorpromazine (1.5 mg/kg) 15 minutes prior to dosing and again as needed to maintain anesthesia. A dosing group of five animals was administered one of the dosing solutions. An 11 cm Rusch 8 French catheter was adapted to a 1 ml syringe with a pipette tip. The syringe was filled with dosing solution by drawing the solution through the catheter, which was then wiped dry. The catheter was placed down the esophagus leaving 1 cm of tubing past the incisors. The dosing solution was administered by pressing the syringe plunger.
Blood samples were collected serially from the tail artery typically at time=15, 30, 45, 60 and 90 minutes. The five samples from each time period were pooled (except for those samples for which standard deviation (SD) and standard error (SE) are reported). Serum rHGH concentrations were quantified by an rHGH immunoassay test kit (Kit # K1F4015 from Genzyme Corporation Inc., Cambridge, Mass.).

[8] = Daptomycin oral delivery, plasma daptomycin by HPLC; assay type: in vivo, Sprague-Dawley rats; conditions: rats, delivery agent compound dose 200 mg/kg, daptomycin dose 50 mg/kg, volume dose 1 mL/kg
Procedure: Dosing solutions containing a delivery agent compound and daptomycin (Cubist Pharmaceuticals, Cambridge, Mass.) were prepared in 0.9% normal saline. […] This mixture was vortexed and placed in a sonicator (about 37° C.). The pH was adjusted to about 7.0-7.5 with aqueous HCl or NaOH. […] The mixture was vortexed to produce a uniform solution, also using sonication if necessary. The delivery agent compound solution was mixed with daptomycin from a stock solution (200 mg daptomycin/mL in 0.9% normal saline and the pH adjusted, if necessary, to between 6.0-7.0 with NaOH or HCl). The stock solution was stored frozen (−20° C.) wrapped in foil, then thawed and warmed gradually to about 25° C. before using. The delivery agent-daptomycin mixture was vortexed at low speed to produce a uniform solution. The pH was adjusted to about 7.0-7.5 with aqueous NaOH. The solution was then diluted with 0.9% normal saline to the desired volume (usually 2.0 ml) and concentration and stored wrapped in foil before use.
as §2
Heparinized rat blood samples were collected via the ventral tail artery, typically at 0.25, 0.5, 0.75, 1.0, 2.0, and 4.0 hours after dosing, and stored on ice. Blood samples were then spun (centrifuged) at 11,500 rpm for 4 minutes at 4° C. to obtain the plasma (supernatant), which was stored at −70° C. The plasma daptomycin concentrations were measured by isocratic reversed phase HPLC, keeping samples at 4° C. during analysis. Blank plasma studies show baseline values of zero.
Daptomycin blood concentrations results from the individual animals in each dosage group were averaged for each time point.

[9] = IC (intracolonic), delivery agent compound 50 mg/kg, heparin 25 mg/kg, volume dose 1 ml
[10] = delivery agent compound 200 mg/kg, insulin 0.5 mg/kg, 1 ml/kg

Structure (SMILES): O=C(O)CCCCCOc1ccc(O)cc1 [Compound 49]
Mean Peak Serum [INS] ± SD ([4]; delivery agent compound 100 mg/kg, insulin 3 mg/kg, 0.5 ml/kg): 335.7 ± 227.05 μU/ml | Mean Ratio of AUC for insulin + compound versus AUC for insulin alone [5]: 0.54

Structure (SMILES): O=C(O)CCCCCOc1cccc(O)c1 [Compound 45]
Mean Peak Serum [INS] ± SD [4, 10]: 70.32 ± 149.1 μU/ml | Mean Ratio of AUC for insulin + compound versus AUC for insulin alone [5]: 1.01 | Mean Peak Serum sCT (pg/ml ± SD) (SE) ([6]; dose volume 1 (ml), 150 mg/kg): 125 ± 187 pg/mL and 172 ± 158 pg/mL

Structure (SMILES): O=C(O)CCCCCCCOc1ccc(F)cc1F [Compound 71]
Cmax (serum insulin) [5]: 57.82 ± 35.28 μU/ml | Mean Peak Serum [rhGH] ([7]; volume dose 3 ml): 5.94 ng/mL | Mean Peak Serum sCT (pg/ml ± SD) (SE) ([6]; dose volume 2 (ml)): 302 ± 246 pg/mL

Structure (SMILES): O=C(O)CCCCCCCCCOc1ccc(O)cc1 [Compound 48]
Cmax (serum insulin) [5]: 135.56 ± 80.96 μU/ml | Mean Ratio of AUC for insulin + compound versus AUC for insulin alone [5]: 1.30 | Mean Peak Serum sCT (pg/ml ± SD) (SE) ([6]; dose volume 3 (ml)): 95 ± 156 pg/mL | Mean Peak Serum sCT (pg/ml ± SD) (SE) ([6]; dose volume 4 (ml)): 35 ± 49 pg/mL

Second part, led by results:

Mean Peak Plasma LMWH Concentration ± SD ([1]; delivery agent compound 25 mg/kg): 0.47 ± 0.17 IU/ml | Mean Peak Serum [IFN] ± SD [3]: 0.5696 ± 0.8 ng/mL | Mean Peak Serum [INS] ± SD [4, 10]: 129.5 ± 131.5 μU/ml
Structure (SMILES): O=C(O)CCCCCCOc1ccccc1O [Compound 6, (2-hydroxyphenyl)-7-oxyheptanoic acid]
Mean Peak APTT ± SD [2, 9]: 157.4 ± 33.7 s and 99.8 ± 50.6 s | Mean Peak APTT ± SD ([2]; PO (oral gavage), delivery agent compound 300 mg/kg, heparin 100 mg/kg, volume dose 3 ml): 193 ± 61.2 s

Mean Peak Plasma LMWH Concentration ± SD ([1]; delivery agent compound 50 mg/kg): 0.07 ± 0.01 IU/ml | Mean Peak Serum [IFN] ± SD [3]: 0 ng/mL | Mean Peak Serum [INS] ± SD [4, 10]: 3.12 ± 2.26 μU/ml | Mean Peak Serum [INS] ± SD ([4]; delivery agent compound 200 mg/kg, insulin 3 mg/kg, 1 ml/kg): 6.38 ± 4.42 μU/ml | Mean Peak Serum [rhGH] ([7]; volume dose 1 ml): 0 ng/mL
Structure (SMILES): O=C(O)CCCCCCCOc1ccccc1C(=O)O [Compound 32]
Mean Peak APTT ± SD [2, 9]: 26.5 ± 2.3 s | Mean Peak Serum sCT (pg/ml ± SD) (SE) ([6]; dose volume 1 (ml), 150 mg/kg): 175 ± 148 pg/mL and 103 ± 75 pg/mL and 187 ± 135 pg/mL

Mean plasma Cmax [daptomycin] ± SD [8]: 14200 ± 24840 ng/mL | Mean Peak Serum [rhGH] ([7]; volume dose 1 ml): 19.8 ng/mL
Structure (SMILES): O=C(O)CCCOc1ccccc1 [Compound 14]

Cmax (serum insulin) [5]: 80.56 ± 30.51 μU/ml | Mean Peak Serum [rhGH] ([7]; volume dose 1 ml): 0 ng/mL
Structure (SMILES): O=C(O)c1ccc(COc2ccccc2Cl)cc1 [Compound 78]
